Experimental data published in PMC3773988 (Journal of medicinal chemistry, 2013).
Residues, ends and D or L forms follow the SMILES beside them. *: point of attachment. X1 = O=C(O)CCC(NC(=O)NC(CCCCNC(=O)CCCCCCC(=O)*)C(=O)O)C(=O)O; Acetyl(2-STrt) = O=C(CSC(c1ccccc1)(c1ccccc1)c1ccccc1)*

The compounds below were run against PSMA (Homo sapiens, UniProt Q04609) (assay: NAALADase assay).
Sequence of PSMA (Q04609 whole entry): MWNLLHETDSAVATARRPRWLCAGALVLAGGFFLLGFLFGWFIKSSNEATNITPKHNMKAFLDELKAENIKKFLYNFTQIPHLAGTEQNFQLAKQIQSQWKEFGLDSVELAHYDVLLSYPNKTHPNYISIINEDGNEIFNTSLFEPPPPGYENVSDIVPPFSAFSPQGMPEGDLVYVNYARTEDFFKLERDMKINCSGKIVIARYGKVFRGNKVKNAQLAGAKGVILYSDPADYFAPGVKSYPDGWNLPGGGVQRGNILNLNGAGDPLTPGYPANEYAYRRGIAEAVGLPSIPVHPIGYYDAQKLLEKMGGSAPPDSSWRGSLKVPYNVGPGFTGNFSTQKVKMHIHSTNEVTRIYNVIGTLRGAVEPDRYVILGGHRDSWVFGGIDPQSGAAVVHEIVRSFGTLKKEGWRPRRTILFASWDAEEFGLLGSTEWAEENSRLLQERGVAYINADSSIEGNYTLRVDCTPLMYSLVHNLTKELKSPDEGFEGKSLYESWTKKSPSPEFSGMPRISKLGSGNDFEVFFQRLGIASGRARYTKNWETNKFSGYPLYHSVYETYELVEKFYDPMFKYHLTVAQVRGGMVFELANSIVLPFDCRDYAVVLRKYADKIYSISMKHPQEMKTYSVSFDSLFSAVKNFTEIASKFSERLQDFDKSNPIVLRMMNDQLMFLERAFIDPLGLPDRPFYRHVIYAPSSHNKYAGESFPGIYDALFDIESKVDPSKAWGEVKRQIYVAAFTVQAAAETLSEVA
Assay type: biochemical
For O=C(O)CCC(NC(=O)NC(CCCCNC(=O)CCCCCCC(=O)NC(CCCCN(CC(=O)O)Cc1ccccn1)C(=O)O)C(=O)O)C(=O)O (centres unmarked) [Compound L9, 2-[3-(1-Carboxy-5-(7-[1-carboxy-5-(carboxymethyl-pyridin-2-ylmethyl-amino)-pentylcarbamoyl]-heptanoylamino)-pentyl)-ureido]-pentanedioic acid], the Ki was 12.6 nM.
O=C(O)CCC(NC(=O)NC(CCCCNC(=O)CCCCCCC(=O)NCCCCC(NC(=O)C(Cc1ccccc1)NC(=O)C(Cc1ccccc1)NC(=O)CNC(=O)CNC(=O)CSC(c1ccccc1)(c1ccccc1)c1ccccc1)C(=O)O)C(=O)O)C(=O)O (centres unmarked) [Compound L13, 12,15-dibenzyl-4,7,10,13,16,24,31,39-octaoxo-1,1,1-triphenyl-2-thia-5,8,11,14,17,23,32,38,40-nonaazatritetracontane-18,37,41,43-tetracarboxylic acid] ({Acetyl(2-STrt)}-GGFFK(X1)-OH; configuration not given here) was tested, and the Ki was 1.91 nM.
For NNc1ccc(C(=O)NCCCCC(NC(=O)CCCCCCC(=O)NCCCCC(NC(=O)NC(CCC(=O)O)C(=O)O)C(=O)O)C(=O)O)cn1 (centres unmarked) [Compound L19, 2-(3-[1-Carboxy-5-(7-(1-carboxy-5-[(6-hydrazino-pyridine-3-carbonyl)-amino]-pentylcarbamoyl)-heptanoylamino)-pentyl]-ureido)-pentanedioic acid], the Ki was 1.74 nM.
O=C(O)CC[C@H](NC(=O)N[C@@H](CCCCNC(=O)CCCCCCC(=O)NCCCC[C@@H](NC(=O)C(CNC(=O)CSC(c1ccccc1)(c1ccccc1)c1ccccc1)NC(=O)CSC(c1ccccc1)(c1ccccc1)c1ccccc1)C(=O)O)C(=O)O)C(=O)O (stereo partly drawn) [Compound L16, (10R, 29S ,33S)-4,8,16,23,31-pentaoxo-1,1,1-triphenyl-7-(2-(tritylthio)acetamido)-2-thia-5,9,15,24,30,32-hexaazapentatriacontane-10,29,33,35-tetracarboxylic acid] showed a Ki of 0.048 nM.
O=C(O)CCC(NC(=O)NC(CCCCNC(=O)CCCCCCC(=O)NC(CCCCN(Cc1ncc[nH]1)Cc1ncc[nH]1)C(=O)O)C(=O)O)C(=O)O (centres unmarked) [Compound L10, 2-{3-[5-(7-(5-[Bis-(1H-imidazol-2-ylmethyl)-amino]-1-carboxy-pentylcarbamoyl)-heptanoylamino)-1-carboxy-pentyl]-ureido}-pentanedioic acid] gave a Ki of 16.3 nM.
Work on NC(Cc1cn(CCCC[C@H](NC(=O)CCCCCCC(=O)NCCCC[C@H](NC(=O)N[C@@H](CCC(=O)O)C(=O)O)C(=O)O)C(=O)O)nn1)C(=O)O (stereo partly drawn) [Compound L8, (3S,7S,22S)-26-(4-(2-amino-2-carboxyethyl)-1H-1,2,3-triazol-1-yl)-5,13,20-trioxo-4,6,12,21-tetraazahexacosane-1,3,7,22-tetracarboxylic acid] yielded a Ki of 1.12 nM.
O=C(O)CCC(NC(=O)NC(CCCCNC(=O)CCCCCCC(=O)NCCCCC(NC(=O)C(Cc1ccccc1)NC(=O)CNC(=O)CNC(=O)CSC(c1ccccc1)(c1ccccc1)c1ccccc1)C(=O)O)C(=O)O)C(=O)O (centres unmarked) [Compound L12, 12-benzyl-4,7,10,13,21,28,36-heptaoxo-1,1,1-triphenyl-2-thia-5,8,11,14,20,29,35,37-octaazatetracontane-15,34,38,40-tetracarboxylic acid] ({Acetyl(2-STrt)}-GGFK(X1)-OH; configuration not given here) showed a Ki of 0.13 nM.
In the case of O=C(O)CCC(NC(=O)NC(CCCCNC(=O)CCCCCCC(=O)NCCCCC(NC(=O)CNC(=O)CNC(=O)CSC(c1ccccc1)(c1ccccc1)c1ccccc1)C(=O)O)C(=O)O)C(=O)O (centres unmarked) [Compound L11], the Ki is reported as 0.03 nM.
